This note sets out measurements from patent US20230312542A1, “HYDROXYPYRROLIDINE DERIVATIVE AND MEDICINAL APPLICATION THEREOF” (MITSUBISHI TANABE PHARMA CORPORATION, priority 2020, published 2023).

Bounds are passed on as bounds.

Chain of VHL (co-expressed with Elongin B and Elongin C) (P40337 whole entry, looked up): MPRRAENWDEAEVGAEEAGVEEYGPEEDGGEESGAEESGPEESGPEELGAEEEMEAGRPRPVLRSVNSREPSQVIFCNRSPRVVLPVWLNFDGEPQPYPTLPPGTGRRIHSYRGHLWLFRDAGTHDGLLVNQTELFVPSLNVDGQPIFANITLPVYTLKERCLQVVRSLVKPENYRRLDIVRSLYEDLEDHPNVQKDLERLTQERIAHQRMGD
Chain of VHL (co-expressed with Elongin B and Elongin C) (Q15370 whole entry partner, looked up): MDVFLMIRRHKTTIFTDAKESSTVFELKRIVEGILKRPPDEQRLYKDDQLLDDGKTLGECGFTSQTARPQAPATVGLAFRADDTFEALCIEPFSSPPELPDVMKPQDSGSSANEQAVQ
Chain of VHL (co-expressed with Elongin B and Elongin C) (Q15369 whole entry partner, looked up): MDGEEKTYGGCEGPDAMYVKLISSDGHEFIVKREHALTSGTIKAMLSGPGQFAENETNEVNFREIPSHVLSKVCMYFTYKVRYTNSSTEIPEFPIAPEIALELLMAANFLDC

The experiment concerns the target VHL (co-expressed with Elongin B and Elongin C) (Homo sapiens (Human), UniProt P40337). The experiment in a line: Measurement of intermolecular interactions using surface plasmon resonance (Biacore T200), Kd value for VHL. The class given is binding. The note with it: SPR, immobilized VHL, 25° C.; read-out: Kd. The source says:
As the device, Biacore T200 (manufactured by GE Healthcare) was used. VHL was obtained by co-expressing Elongin B and Elongin C with a Twin-Strep-tag added to the N-terminus. As the sensor chip, Sensor chip CM5 (manufactured by GE Healthcare) was used. First, Strep-Tactin XT (manufactured by GE Healthcare) was immobilized on the sensor chip by amine coupling. Thereafter, VHL was immobilized using the affinity of Strep-Tactin XT and Twin-Strep-tag, and VHL was further immobilized on the sensor chip by amine coupling.
As the running buffer, a mixed solution of 20 mM HEPES pH 7.5, 150 mM NaCl, 1 mM TCEP, 0.005% Tween 20, and 2% DMSO was used. […] The Contact time and the Dissociation time were determined according to the properties of the compounds. For many compounds, 60 seconds and 120 seconds were respectively used.
What is called Kd is the equilibrium constant for the complex coming apart. In the case of `CCCc1nnc(C(C(=O)N2C[C@H](O)C[C@H]2c2ncc[nH]2)C(C)C)o1` (stereo partly drawn) [Example 162, 1-[(2S,4R)-4-hydroxy-2-(1H-imidazol-2-yl)pyrrolidin-1-yl]-3-methyl-2-(5-propyl-1,3,4-oxadiazol-2-yl) butan-1-one], the Kd is 10 to 50 µM.

Take `CC(=O)N[C@H](C(=O)N1C[C@H](O)C[C@H]1c1nc(C(=O)N(C)Cc2ccc(Cl)cc2)c[nH]1)C(C)(C)C` [Example 16, 2-[(2S,4R)-1-[(2S)-2-acetamido-3,3-dimethylbutanoyl]-4-hydroxypyrrolidin-2-yl)-N-[(4-chlorophenyl)methyl]-N-methyl-1H-imidazole-4-carboxamide]: the Kd was 1 to 10 µM.

Take `COc1cc(C(C(=O)N2C[C@H](O)C[C@H]2c2nccn2Cc2ccccc2Oc2ccccc2)C(C)C)on1` (stereo partly drawn) [Example 69, 1-[(2S,4R)-4-hydroxy-2-[1-[(2-phenoxyphenyl)methyl]imidazol-2-yl]pyrrolidin-1-yl]-2-(3-methoxy-1,2-oxazol-5-yl)-3-methylbutan-1-one]: the Kd was in the range of 10 to 50 µM.

Consider `CC(=O)N[C@H](C(=O)N1C[C@H](O)C[C@H]1c1nc(C(=O)N(C)Cc2cccc(Cl)c2)c[nH]1)C(C)(C)C` [Example 15, 2-[(2S,4R)-1-[(2S)-2-acetamido-3,3-dimethylbutanoyl]-4-hydroxypyrrolidin-2-yl]-N-[(3-chlorophenyl)methyl]-N-methyl-1H-imidazole-4-carboxamide], for which the Kd is 1 to 10 µM.

Consider `CNC(=O)c1cccc(-c2cnc([C@@H]3C[C@@H](O)CN3C(=O)C(c3cc(OC)no3)C(C)C)[nH]2)c1` (stereo partly drawn) [Example 80, 3-[2-[(2S,4R)-4-hydroxy-1-[2-(3-methoxy-1,2-oxazol-5-yl)-3-methylbutanoyl]pyrrolidin-2-yl]-1H-imidazol-5-yl]-N-methylbenzamide], for which the Kd is 1 to 10 µM.

Turning to `CC(=O)N[C@H](C(=O)N1C[C@H](O)C[C@H]1c1ncc(Cc2ccc(Br)cc2)[nH]1)C(C)(C)C` [Example 81, N-[(2S)-1-[(2S,4R)-2-[5-[(4-bromophenyl)methyl]-1H-imidazol-2-yl]-4-hydroxypyrrolidin-1-yl]-3,3-dimethyl-1-oxobutan-2-yl]acetamide], the Kd was in the range of 1 to 10 µM.

`COc1cc(C(C(=O)N2C[C@H](O)C[C@H]2c2nccn2Cc2ccnc(-c3ccc(C(F)(F)F)cc3)c2)C(C)C)on1` (stereo partly drawn) [Example 102, 1-[(2S,4R)-4-hydroxy-2-[1-[[2-[4-(trifluoromethyl)phenyl]-4-pyridyl]methyl]imidazol-2-yl]pyrrolidin-1-yl]-2-(3-methoxyisoxazol-5-yl)-3-methylbutan-1-one]: the Kd lay within 10 to 50 µM.

Regarding `COc1cc(C(C(=O)N2C[C@H](O)C[C@H]2c2nccn2Cc2cncc(-c3ccc(F)cc3)c2)C(C)C)on1` (stereo partly drawn) [Example 113, 1-[(2S,4R)-2-[1-[[5-(4-fluorophenyl)-3-pyridyl]methyl]imidazol-2-yl]-4-hydroxypyrrolidin-1-yl]-2-(3-methoxyisoxazol-5-yl)-3-methylbutan-1-one], the Kd lay in the range of 10 to 50 µM.

On to `COc1cccc(CN(C)C(=O)c2c[nH]c([C@@H]3C[C@@H](O)CN3C(=O)[C@@H](NC(C)=O)C(C)(C)C)n2)c1` [Example 24, 2-[(2S,4R)-1-[(2S)-2-acetamido-3,3-dimethylbutanoyl]-4-hydroxypyrrolidin-2-yl]-N-[(3-methoxyphenyl)methyl]-N-methyl-1H-imidazole-4-carboxamide], for which the dissociation constant (Kd) lay in the range of 1 to 10 µM.

In the case of `Cc1cc(-c2cnn(C(C(=O)N3C[C@H](O)C[C@H]3c3ncc[nH]3)C(C)C)c2)on1` (stereo partly drawn) [Example 160, 1-[(2S,4R)-4-hydroxy-2-(1H-imidazol-2-yl)pyrrolidin-1-yl]-3-methyl-2-[4-(3-methylisoxazol-5-yl)pyrazol-1-yl]butan-1-one], the dissociation constant Kd was 10 to 50 µM.

For the compound `COc1ccc(Cc2cnc([C@@H]3C[C@@H](O)CN3C(=O)C(c3cc(OC)no3)C(C)C)[nH]2)cc1` (stereo partly drawn) [Example 62, 1-[(2S,4R)-4-hydroxy-2-[5-[(4-methoxyphenyl)methyl]-1H-imidazol-2-yl]pyrrolidin-1-yl]-2-(3-methoxy-1,2-oxazol-5-yl)-3-methylbutan-1-one], the Kd was in the range of 1 to 10 µM.

Take `COc1cc(C(C(=O)N2C[C@H](O)C[C@H]2c2nc(C(=O)N3CCC(Oc4ccccc4)CC3)c[nH]2)C(C)C)on1` (stereo partly drawn) [Example 1, 1-[(2S,4R)-4-hydroxy-2-[4-(4-phenoxypiperidine-1-carbonyl)-1H-imidazol-2-yl]pyrrolidin-1-yl]-2-(3-methoxy-1,2-oxazol-5-yl)-3-methylbutan-1-one]: the Kd was in the range of 1 to 10 µM.

For `COc1cc(C(C(=O)N2C[C@H](O)C[C@H]2c2nccn2Cc2ccccc2OCc2ccccc2)C(C)C)on1` (stereo partly drawn) [Example 66, 1-[(2S,4R)-4-hydroxy-2-[1-[(2-phenylmethoxyphenyl)methyl]imidazol-2-yl]pyrrolidin-1-yl]-2-(3-methoxy-1,2-oxazol-5-yl)-3-methylbutan-1-one], the Kd was 10 to 50 µM.

`COc1cc(C(C(=O)N2C[C@H](O)C[C@H]2c2nc(C(=O)N3CCN(c4ccccc4)CC3)c[nH]2)C(C)C)on1` (stereo partly drawn) [Example 140, 1-[(2S,4R)-4-hydroxy-2-[4-(4-phenylpiperazine-1-carbonyl)-1H-imidazol-2-yl]pyrrolidin-1-yl]-2-(3-methoxyisoxazol-5-yl)-3-methylbutan-1-one]: the equilibrium dissociation constant (Kd) was 1 to 10 µM.

`COc1ccc(-c2cnc([C@@H]3C[C@@H](O)CN3C(=O)C(c3cc(OC)no3)C(C)C)[nH]2)cc1` (stereo partly drawn) [Example 78, 1-[(2S,4R)-4-hydroxy-2-[5-(4-methoxyphenyl)-1H-imidazol-2-yl]pyrrolidin-1-yl]-2-(3-methoxy-1,2-oxazol-5-yl)-3-methylbutan-1-one]: the Kd lay within 1 to 10 µM.

As to `COc1cc(C(C(=O)N2C[C@H](O)C[C@H]2c2nc(C(=O)N3CCC(c4ccccc4)C3)c[nH]2)C(C)C)on1` (stereo partly drawn) [Example 111, 1-[(2S,4R)-4-hydroxy-2-[4-(3-phenylpyrrolidine-1-carbonyl)-1H-imidazol-2-yl]pyrrolidin-1-yl]-2-(3-methoxyisoxazol-5-yl)-3-methylbutan-1-one], the Kd was under 1 µM.
